Measured values published in patent US20040192777A1, “Novel anticancer diterpene compounds, process and uses thereof” (COUNCIL OF SCIENTIFIC AND INDUSTRIAL, priority 2003, published 2004).

Assays:
Type in all cases: cell-based
[1] = system: human cervix cancer cell line (SiHa); assay: In vitro cytotoxicity (SRB) against SiHa
Method: (§1) The human cancer cell lines were obtained either from National center for cell science, Pune, India or National Cancer Institute, Frederick, MD, U.S.A. Cells were grown in tissue culture flasks in complete growth medium (RPMI-1640 medium with 2 mM glutamine, 100 μg/ml streptomycin, pH 7.4, sterilized by filtration and supplemented with 10% sterilized fetal calf serum and 100 units/ml penicillin before use) at 37° C. in an atmosphere of 5% CO2 and 90% relative humidity in a carbon dioxide incubator. The cells at subconfluent stage were harvested from the flask by treatment with trypsin (0.05% trypsin in PBS containing 0.02% EDTA) and suspended in complete growth medium. Cells with cell viability of more than 97% by trypan blue exclusion technique were used for determination of cytotoxicity.
(§2) Compound 1 was dissolved in DMSO (dimethyl sulphoxide) to obtain a stock solution of 20 mg/ml. The stock solution was serially diluted with complete growth medium containing 50 μg/ml of gentamycin to obtain three working test solutions of 200, 60 and 20 μg/ml.
(§3) The suspension of human cancer cell lines of required cell density in complete growth medium was prepared and cell suspension of each cell line was placed in 96-well tissue culture plate (100 μl per well) for control, Compound 1 and positive control(s). The blank wells for each cell line and concentration of test material were also included that contained equivalent amount of complete growth medium only. The plates were incubated at 37° C. in an atmosphere of 5% CO2 and 90% relative humidity in a carbon dioxide incubator. The experiment was carried out in triplicate.
(§4) After 24-hours of incubation, the working solutions of Compound 1 of different concentrations (100 μl) were added in the experimental wells and blanks whereas positive controls of required concentrations (100 μl) were added into wells for positive controls. The equivalent amount of complete growth medium was added to control set.
(§5) The plates were further incubated for 48-hours (at 37° C. in an atmosphere of 5% CO2 and 90% relative humidity in a carbon dioxide incubator) after addition of test material etc. and then the cell growth was stopped by gently layering of 50 μl of TCA (50% trichloroacetic acid) on top of the medium in all the wells. The plates were incubated at 4° C. for one hour to fix the cells attached to the bottom of the wells. Liquids of all the wells were gently pipetted out and discarded. The plates were washed five times with distilled water to remove TCA, growth medium, low molecular weight metabolites, serum proteins etc. Plates were air dried.
(§6) Cell growth was measured by staining with sulforhodamine B dye (SRB). The SRB solution (100 μl of 0.4% SRB in 1% acetic acid) was added to each well and the plates were incubated at room temperature for 30 minutes. The unbound SRB was quickly removed by washing the wells five times with 1% acetic acid and plates were air dried. Tris-buffer (100 μl of 0.01M, pH 10.4) was added to all the wells and plates were gently stirred for 5 minutes on a mechanical stirrer. The optical density was recorded on ELISA reader at 540 nm.
(§7) The cell growth in presence of test material was determined by subtracting mean OD value of respective blank from the mean OD value of experimental set. Like wise, cell growth in absence of test material (control set) and in presence of positive control was also determined. The per cent cell growth in presence of test material was determined considering the cell growth in absence of test material as 100% and in turn per cent inhibition was calculated.
(§8) The human cancer cell lines were grown, harvested and cytotoxicity was determined exactly as mentioned in Example 3 except that the test material used was Compound 2 that was dissolved in DMSO and three working test solutions were prepared of the same concentrations as in Example 3.

[2] = system: human colon cancer cells (HT-29); assay: In vitro cytotoxicity (SRB) against HT-29; conditions: HT-29 Colon
Method: as §1, §2, §3, §4, §5, §6, §7, §8

[3] = system: human lung cancer cell line HOP-62; assay: In vitro cytotoxicity (SRB) against HOP-62; conditions: HOP-62 Lung; for Growth inhibition, %: 48 h
Method: as §1, §2, §3, §4, §5, §6, §7, §8

[4] = system: human lung cancer cells (A-549); assay: In vitro cytotoxicity (SRB) against A-549; conditions: A-549 Lung; for Growth inhibition, %: 48 h
Method: as §1, §2, §3, §4, §5, §6, §7, §8

[5] = system: human ovary cancer cells (OVCAR-5); assay: In vitro cytotoxicity (SRB) against OVCAR-5; conditions: OVCAR-5 Ovary; for Growth inhibition, %: 48 h
Method: as §1, §2, §3, §4, §5, §6, §7, §8

[6] = system: human prostate cancer cell line PC-3; assay: In vitro cytotoxicity (SRB) against PC-3; conditions: PC-3 Prostate
Method: as §1, §2, §3, §4, §5, §6, §7, §8

[7] = system: human liver cancer cells (Hep-2); assay: In vitro cytotoxicity (SRB) against Hep-2; conditions: Hep-2 Liver
Method: The human cancer cell lines were obtained either from National center for cell science, Pune, India or National Cancer Institute, Frederick, MD, U.S.A. […] Cells with cell viability of more than 97% by trypan blue exclusion technique were used for determination of cytotoxicity. Compound 1 was dissolved in DMSO (dimethyl sulphoxide) to obtain a stock solution of 20 mg/ml. […] The blank wells for each cell line and concentration of test material were also included that contained equivalent amount of complete growth medium only. The plates were incubated at 37° C. in an atmosphere of 5% CO2 and 90% relative humidity in a carbon dioxide incubator. The experiment was carried out in triplicate. […] The equivalent amount of complete growth medium was added to control set. […] The plates were incubated at 4° C. for one hour to fix the cells attached to the bottom of the wells. Liquids of all the wells were gently pipetted out and discarded. The plates were washed five times with distilled water to remove TCA, growth medium, low molecular weight metabolites, serum proteins etc. Plates were air dried. Cell growth was measured by staining with sulforhodamine B dye (SRB). […] The optical density was recorded on ELISA reader at 540 nm. The cell growth in presence of test material was determined by subtracting mean OD value of respective blank from the mean OD value of experimental set. Like wise, cell growth in absence of test material (control set) and in presence of positive control was also determined. […] The human cancer cell lines were grown, harvested and cytotoxicity was determined exactly as mentioned in Example 3 except that the test material used was Compound 2 that was dissolved in DMSO and three working test solutions were prepared of the same concentrations as in Example 3.

[8] = system: human CNS cancer cells (SK-N-MC); assay: In vitro cytotoxicity (SRB) against SK-N-MC; conditions: 48 h
Method: as §1, §2, §3, §4, §5, §6, §7, §8

human cancer cell lines = assay: In vitro cytotoxicity (SRB), span over the cell line panel; conditions: at 100 μg/ml, all human cancer cell lines studied except HOP-62
Method: as §1, with “cytotoxicity. […]” for “cytotoxicity.”
Cell growth was measured by staining with sulforhodamine B dye (SRB). […] The optical density was recorded on ELISA reader at 540 nm.
as §7, with “calculated. […]” for “calculated.”

[9] = Homo sapiens, 1 × 10^−4M, positive control, read-out: Growth inhibition, %
[10] = Homo sapiens, 1 × 10^−5M, positive control, read-out: Growth inhibition, %

| Structure (SMILES) | Growth inhibition, % ([6]; 10 μg/ml, 48 h) [%] | Growth inhibition, % ([6]; 30 μg/ml, 48 h) [%] | Growth inhibition, % ([6]; 100 μg/ml, 48 h) [%] | Growth inhibition, % ([3]; 10 μg/ml) [%] | Growth inhibition, % ([3]; 30 μg/ml) [%] | Growth inhibition, % ([3]; 100 μg/ml) [%] | Growth inhibition, % ([7]; 10 μg/ml, 48 h) [%] | Growth inhibition, % ([7]; 30 μg/ml, 48 h) [%] | Growth inhibition, % ([7]; 100 μg/ml, 48 h) [%] | Growth inhibition, % ([4]; 10 μg/ml) [%] | Growth inhibition, % ([4]; 30 μg/ml) [%] | Growth inhibition, % ([4]; 100 μg/ml) [%] | Growth inhibition, % ([1]; 10 μg/ml, 48 h) [%] | Growth inhibition, % ([1]; 30 μg/ml, 48 h) [%] | Growth inhibition, % ([1]; 100 μg/ml, 48 h) [%] | Growth inhibition, % ([5]; 10 μg/ml) [%] | Growth inhibition, % ([5]; 30 μg/ml) [%] | Growth inhibition, % ([5]; 100 μg/ml) [%] | Growth inhibition, % ([2]; 10 μg/ml, 48 h) [%] | Growth inhibition, % ([2]; 30 μg/ml, 48 h) [%] | other results |
| --- | --- | --- | --- | --- | --- | --- | --- | --- | --- | --- | --- | --- | --- | --- | --- | --- | --- | --- | --- | --- | --- |
| O=c1[nH]cc(F)c(=O)[nH]1 [Compound 5FU, reference compound] | – | – | – | – | – | – | – | – | – | – | – | – | – | – | – | – | – | – | – | – | Growth inhibition, % ([1]; 1 × 10^−4M, positive control): 17%; Growth inhibition, % ([2]; 1 × 10^−4M, positive control): 43% |
| CC/C(=C(\c1ccccc1)c1ccc(OCCN(C)C)cc1)c1ccccc1 [Tamoxifen, reference compound] | – | – | – | – | – | – | – | – | – | – | – | – | – | – | – | – | – | – | – | – | inhibition at 100 µM [3, 9]: 20%; inhibition at 10 µM [3, 10]: 2%; inhibition at 100 µM ([4]; Homo sapiens, A549, 1 × 10^−4M, positive control, read-out: Growth inhibition, %): 98%; inhibition at 10 µM ([4]; Homo sapiens, A549, 1 × 10^−5M, positive control, read-out: Growth inhibition, %): 19%; inhibition at 100 µM [5, 9]: 100%; inhibition at 10 µM [5, 10]: 0% |
| C=C[C@]1(C)C=C2CCC3[C@@](C)(CCC[C@@]3(C)C(=O)O)C2CC1 (stereo partly drawn) [Compound 1, ent-pimmarane 8(14),15-diene-19 oic acid] | 05 | 78 | 97 | 00 | 00 | 03 | 20 | 68 | 80 | 13 | 72 | 94 | 00 | 14 | 41 | 00 | 66 | 76 | 02 | 70 | Growth inhibition, % ([2]; 100 μg/ml, 48 h): 94%; Growth inhibition, % ([8]; 10 μg/ml): 00%; Growth inhibition, % ([8]; 30 μg/ml): 75%; Growth inhibition, % ([8]; 100 μg/ml): 88%; inhibition of cell growth, span over the cell lines (human cancer cell lines): 41-97% |
| CO[C@@]12[C@H](COC(N)=O)C3=C(C(=O)C(C)=C(N)C3=O)N1C[C@@H]1N[C@@H]12 [Mytomycin C, reference compound] | – | – | – | – | – | – | – | – | – | – | – | – | – | – | – | – | – | – | – | – | Growth inhibition, % ([6]; 1 × 10^−5M, positive control): 78%; Growth inhibition, % ([7]; 1 × 10^−5M, positive control): 87% |
| C=CC1(C)CC=C2C(=CCC3C(C)(C(=O)O)CCCC23C)C1 (stereo not drawn) [Compound 2, ent-pimmarane 7(8),9(11),15 triene-19 oic acid] | 00 | 83 | 94 | 00 | 00 | 00 | 18 | 70 | 91 | 09 | 71 | 97 | 00 | 8 | 38 | 12 | 67 | 96 | 00 | 70 | Growth inhibition, % ([2]; 100 μg/ml, 48 h): 95%; Growth inhibition, % ([8]; 10 μg/ml): 22%; Growth inhibition, % ([8]; 30 μg/ml): 85%; Growth inhibition, % ([8]; 100 μg/ml): 92%; inhibition of cell growth, span over the cell lines (human cancer cell lines): 38-97% |
